Measured values from PubChem BioAssay AID1963438 (Molecular Pharmacology Branch, DTP, NCI, 2024).
“And” between values parts separate entries of the source, which are not always exact repeats. Equal values may be shown once.

System: NCI-H510 multicellular tumor spheroid growth, % test/control
Assay: Anticancer human tumor NCI-H510 cell line growth inhibition [Asc];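 note: spheroids exposed to agents for 7 days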;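 for viability, T/C: 100% = DMSO vehicle control wells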
Conditions: for viability, T/C: stronger effect = lower value
Procedure, shortened: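 Tumor cells were grown as complex spheroids with human endothelial cells (HUVEC) and human mesenchymal stem cells as stroma. Agents were tested alone and in combination, in half-log steps down from the clinical Cmax, or from 10 microM where Cmax was unknown.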

[1] = curve of first compound, second compound 0.01 µM
[2] = curve of first compound, second compound 0.0316 µM
[3] = curve of first compound, second compound 0.1 µM
[4] = curve of first compound, second compound 0.316 µM
[5] = curve of first compound, second compound 1 µM
[6] = second compound 0.01 µM, first compound 0.0316 µM
[7] = second compound 0.01 µM, first compound 0.1 µM
[8] = second compound 0.01 µM, first compound 0.316 µM
[9] = second compound 0.01 µM, first compound 1 µM
[10] = second compound 0.0316 µM, first compound 0.0316 µM
[11] = second compound 0.0316 µM, first compound 0.1 µM
[12] = second compound 0.0316 µM, first compound 0.316 µM
[13] = second compound 0.0316 µM, first compound 1 µM
[14] = second compound 0.1 µM, first compound 0.0316 µM
[15] = second compound 0.1 µM, first compound 0.1 µM
[16] = second compound 0.1 µM, first compound 0.316 µM
[17] = second compound 0.1 µM, first compound 1 µM
[18] = second compound 0.316 µM, first compound 0.0316 µM
[19] = second compound 0.316 µM, first compound 0.1 µM
[20] = second compound 0.316 µM, first compound 0.316 µM
[21] = second compound 0.316 µM, first compound 1 µM
[22] = second compound 1 µM, first compound 0.0316 µM
[23] = second compound 1 µM, first compound 0.1 µM
[24] = second compound 1 µM, first compound 0.316 µM
[25] = second compound 1 µM, first compound 1 µM

`C=C(F)C(=O)N1CCN(c2nc(OCC3CCCN3C)nc3c2CCN(c2cccc4cccc(Cl)c24)C3)CC1CC#N` (stereo not drawn) + CNC(C)C(=O)NC1CN(S(=O)(=O)c2cccc(S(=O)(=O)N3CCC4CCC(C(=O)NC(c5ccccc5)c5ccccc5)N4C(=O)C(NC(=O)C(C)NC)C3)c2)CCC2CCC(C(=O)NC(c3ccccc3)c3ccccc3)N2C1=O gave an IC50 [1] of 1960 nM, an IC50 [2] of 1860 nM and an IC50 [3] of 1750 nM. It also gave an IC50 [4] of 1700 nM, an IC50 [5] of 1830 nM and a viability, T/C [6] of 125%. For the same compound, the viability, T/C [7] was 117%, the viability, T/C [8] was 108% and the viability, T/C [9] was 116%. The viability, T/C (second compound 0.01 µM, first compound 3.16 µM) was 2.75%, the viability, T/C (second compound 0.01 µM, first compound 10 µM) was 0.14% and the viability, T/C [10] was 115%. It also gave a viability, T/C [11] of 101%, a viability, T/C [12] of 104% and a viability, T/C [13] of 108%. It also gave a viability, T/C (second compound 0.0316 µM, first compound 3.16 µM) of 1.63%, a viability, T/C (second compound 0.0316 µM, first compound 10 µM) of 0.13% and a viability, T/C [14] of 102%. The viability, T/C [15] was 119%, the viability, T/C [16] was 110% and the viability, T/C [17] was 96.4%. It also gave a viability, T/C (second compound 0.1 µM, first compound 3.16 µM) of 1.1%, a viability, T/C (second compound 0.1 µM, first compound 10 µM) of 0.14% and a viability, T/C [18] of 97.4%. For the same compound, the viability, T/C [19] was 124%, the viability, T/C [20] was 115% and the viability, T/C [21] was 89.4%. For the same compound, the viability, T/C (second compound 0.316 µM, first compound 3.16 µM) was 4.39%, the viability, T/C (second compound 0.316 µM, first compound 10 µM) was 0.13% and the viability, T/C [22] was 115%. For the same compound, the viability, T/C [23] was 105%, the viability, T/C [24] was 108% and the viability, T/C [25] was 104%. The viability, T/C (second compound 1 µM, first compound 3.16 µM) was 0.85% and the viability, T/C (second compound 1 µM, first compound 10 µM) was 0.22%.

`CCN1CCN(Cc2ccc(Nc3ncc(F)c(-c4cc(F)c5nc(C)n(C(C)C)c5c4)n3)nc2)CC1` + CNC(C)C(=O)NC1CN(S(=O)(=O)c2cccc(S(=O)(=O)N3CCC4CCC(C(=O)NC(c5ccccc5)c5ccccc5)N4C(=O)C(NC(=O)C(C)NC)C3)c2)CCC2CCC(C(=O)NC(c3ccccc3)c3ccccc3)N2C1=O was tested, and the IC50 [1] was greater than 1000 nM, the IC50 [2] was greater than 1000 nM and the IC50 [3] was greater than 1000 nM. The IC50 [4] was greater than 1000 nM, the IC50 [5] was greater than 1000 nM and the viability, T/C (second compound 0.01 µM, first compound 0.00316 µM) was 109%. For the same compound, the viability, T/C (second compound 0.01 µM, first compound 0.01 µM) was 117%, the viability, T/C [6] was 124% and the viability, T/C [7] was 112%. For the same compound, the viability, T/C [8] was 150%, the viability, T/C [9] was 128% and the viability, T/C (second compound 0.0316 µM, first compound 0.00316 µM) was 108%. For the same compound, the viability, T/C (second compound 0.0316 µM, first compound 0.01 µM) was 94%, the viability, T/C [10] was 114% and the viability, T/C [11] was 113%. It also gave a viability, T/C [12] of 117%, a viability, T/C [13] of 136% and a viability, T/C (second compound 0.1 µM, first compound 0.00316 µM) of 113%. For the same compound, the viability, T/C (second compound 0.1 µM, first compound 0.01 µM) was 95.5%, the viability, T/C [14] was 99.3% and the viability, T/C [15] was 108%. The viability, T/C [16] was 108%, the viability, T/C [17] was 117% and the viability, T/C (second compound 0.316 µM, first compound 0.00316 µM) was 114%. For the same compound, the viability, T/C (second compound 0.316 µM, first compound 0.01 µM) was 117%, the viability, T/C [18] was 110% and the viability, T/C [19] was 115%. The viability, T/C [20] was 107%, the viability, T/C [21] was 128% and the viability, T/C (second compound 1 µM, first compound 0.00316 µM) was 111%. The viability, T/C (second compound 1 µM, first compound 0.01 µM) was 112%, the viability, T/C [22] was 107% and the viability, T/C [23] was 115%. It also gave a viability, T/C [24] of 123% and a viability, T/C [25] of 127%.

Work on `CCN1C(C(=O)NC23CCC(C(=O)O)(CC2)CC3)C(c2cccc(Cl)c2F)C2(C(=O)Nc3cc(Cl)ccc32)C12CCCCC2` (stereo not drawn) + Cc1c(S(C)(=O)=O)c(-c2cc(F)cc(N3CCN(c4ccc(NS(=O)(=O)c5ccc(NC(CCN6CCC(C(=O)OCCCP(=O)(O)O)CC6)CSc6ccccc6)c(S(=O)(=O)C(F)(F)F)c5)cc4)CC3)c2)c(-c2ccc(Cl)cc2)n1C(C)C yielded an IC50 [3] greater than 3000 nM, an IC50 [4] greater than 3000 nM and an IC50 [5] greater than 3000 nM. It also gave an IC50 (curve of first compound, second compound 3.16 µM) greater than 3000 nM, an IC50 (curve of first compound, second compound 10 µM) greater than 3000 nM and a viability, T/C (second compound 0.1 µM, first compound 0.00949 µM) of 101%. The viability, T/C (second compound 0.1 µM, first compound 0.03 µM) was 97.6%, the viability, T/C (second compound 0.1 µM, first compound 0.0949 µM) was 95.5% and the viability, T/C (second compound 0.1 µM, first compound 0.3 µM) was 96.3%. For the same compound, the viability, T/C (second compound 0.1 µM, first compound 0.949 µM) was 80.3%, the viability, T/C (second compound 0.1 µM, first compound 3 µM) was 104% and the viability, T/C (second compound 0.316 µM, first compound 0.00949 µM) was 86.3%. The viability, T/C (second compound 0.316 µM, first compound 0.03 µM) was 105%, the viability, T/C (second compound 0.316 µM, first compound 0.0949 µM) was 94.8% and the viability, T/C (second compound 0.316 µM, first compound 0.3 µM) was 94.9%. For the same compound, the viability, T/C (second compound 0.316 µM, first compound 0.949 µM) was 88.9%, the viability, T/C (second compound 0.316 µM, first compound 3 µM) was 83.6% and the viability, T/C (second compound 1 µM, first compound 0.00949 µM) was 103%. It also gave a viability, T/C (second compound 1 µM, first compound 0.03 µM) of 82%, a viability, T/C (second compound 1 µM, first compound 0.0949 µM) of 104% and a viability, T/C (second compound 1 µM, first compound 0.3 µM) of 99.5%. The viability, T/C (second compound 1 µM, first compound 0.949 µM) was 103%, the viability, T/C (second compound 1 µM, first compound 3 µM) was 95% and the viability, T/C (second compound 3.16 µM, first compound 0.00949 µM) was 88.7%. For the same compound, the viability, T/C (second compound 3.16 µM, first compound 0.03 µM) was 103%, the viability, T/C (second compound 3.16 µM, first compound 0.0949 µM) was 96.4% and the viability, T/C (second compound 3.16 µM, first compound 0.3 µM) was 114%. For the same compound, the viability, T/C (second compound 3.16 µM, first compound 0.949 µM) was 68%, the viability, T/C (second compound 3.16 µM, first compound 3 µM) was 85.1% and the viability, T/C (second compound 10 µM, first compound 0.00949 µM) was 109%. For the same compound, the viability, T/C (second compound 10 µM, first compound 0.03 µM) was 84%, the viability, T/C (second compound 10 µM, first compound 0.0949 µM) was 87.3% and the viability, T/C (second compound 10 µM, first compound 0.3 µM) was 59.1%. It also gave a viability, T/C (second compound 10 µM, first compound 0.949 µM) of 72.8% and a viability, T/C (second compound 10 µM, first compound 3 µM) of 56.3%.

For `CCN1C(C(=O)NC23CCC(C(=O)O)(CC2)CC3)C(c2cccc(Cl)c2F)C2(C(=O)Nc3cc(Cl)ccc32)C12CCCCC2` (stereo not drawn), the viability, T/C (compound 0.00949 µM) was 103% and 92.8%, the IC50 (compound alone, run of 10/11/2022) was greater than 3000 nM and the IC50 (curve of compound) was greater than 3000 nM.
